In patent US20060088583A1, “Artificial oxygen carrier containing preventive agents of metHb formation” (Oxygenix Co., Ltd., priority 2004, published 2006):

How the values were obtained:
[1] = molecular target: T1, hemoglobin vesicle (methemoglobin formation) (Homo sapiens, UniProt P68871+P69905); assay: Autoxidation of hemoglobin vesicle in the atmospheric air (37° C.), rate of methemoglobin from absorbance ratio 405/430 nm; assay type: biochemical; conditions: for Time required for 50% metHb formation: control 34.0; for Initial rate of metHb formation: control 1.3; for effect to inhibit methemoglobin formation (FIG. 1): encapsulated in hemoglobin vesicle, same manner as Example 1
T1 construct: obtained by purification of human red cells derived from the donated blood; from tissue; host or cells: human red cells from donated blood
T1 sequence (P69905 2-142 limits assumed): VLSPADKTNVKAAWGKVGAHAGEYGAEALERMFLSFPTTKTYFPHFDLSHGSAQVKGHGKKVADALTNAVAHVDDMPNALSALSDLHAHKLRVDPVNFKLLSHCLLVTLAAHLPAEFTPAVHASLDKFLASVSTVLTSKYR
T1 sequence (P68871 2-147 limits assumed): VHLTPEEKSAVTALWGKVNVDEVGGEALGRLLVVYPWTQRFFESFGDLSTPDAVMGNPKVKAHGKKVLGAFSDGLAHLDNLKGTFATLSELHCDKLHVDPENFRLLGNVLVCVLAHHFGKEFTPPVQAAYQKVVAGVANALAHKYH
Procedure: Otherwise, such components were not added to the above hemoglobin solution. Thereafter, using Remolino™ (manufactured by Millipore Japan), each of the obtained mixtures was filtrated through an FM microfilter with a pore size of 0.22 μm (manufactured by Fuji Photo Film Co., Ltd.), so as to obtain a processed hemoglobin solution. Mixed lipid powders (a mixture consisting of phosphatidylcholine, cholesterol, and DPEA; manufactured by Nippon Fine Chemical) were added, little by little, to the hemoglobin solution, resulting in the concentration of lipid of 4.5 wt %. The mixture was then stirred at 4° C. for 12 hours, so as to obtain a multilayer vesicle, in which hemoglobin had been encapsulated. The particle diameter and the number of coating layers were regulated by the extrusion method using Remolino. The FM microfilters were used in the order of pore sizes of 3, 0.8, 0.65, 0.45, 0.3, and 0.22 μm. The obtained hemoglobin vesicle dispersion was diluted with a saline solution. The diluted solution was subjected to ultracentrifugation (50,000 g, 40 minutes), and the supernatant hemoglobin solution was then eliminated by aspiration. Thereafter, a polyoxyethylene-binding lipid [N-(monomethoxy polyethylene glycol-carbamyl)distearoyl phosphatidyl ethanolamine; the molecular weight of the polyethylene glycol chain: 5,300] dispersed in a saline solution was added thereto, at an amount corresponding to 0.3 mol % of the lipid on the outer surface of the vesicle. The mixture was stirred at 25° C. for 2 hours, so as to modify the surface of the hemoglobin vesicle with polyethylene glycol. The concentration of hemoglobin was set at 10 g/dL, and the mixed solution was then filtrated through a 0.45-μm filter (Dismic-25; […]), so as to obtain a polyethylene glycol-modified hemoglobin vesicle.
Each sample was collected over time. Thereafter, the rate of methemoglobin was calculated from the ratio of the absorbance of the hemoglobin vesicle solution at 405 nm to that of at 430 nm.
A hemoglobin vesicle dispersion containing each of a tyrosine derivative, various types of antioxidants, and various types of phenol derivatives, at certain concentrations, was produced. Thereafter, the rate of methemoglobin formation was measured in the same manner as in Example 1.
Thereafter, the rate of 50% methemoglobin formation was measured in the same manner as in Example 1.
Thereafter, the time required for 50% methemoglobin formation was measured in the same manner as in Example 1.

[2] = molecular target: T1, hemoglobin vesicle (methemoglobin formation); assay: Autoxidation of hemoglobin vesicle in the atmospheric air (4° C.), chilled storage; assay type: biochemical; conditions: [L-tyrosine]=1 mM
Procedure: As a result, a slight amount of dityrosine was confirmed. Thereafter, this experiment was performed on a mixture obtained by adding hydrogen peroxide to a methemoglobin solution containing L-tyrosine. As a result, a large amount of dityrosine was confirmed. This is because of the peroxidase activity of methemoglobin. Thereafter, the change in methemoglobin concentration was observed during chilled storage (4° C.).
Each sample was collected over time. Thereafter, the rate of methemoglobin was calculated from the absorbance ratio. […] 1 month later, the rate of methemoglobin were 4.4% and 9.3%, respectively. 3 months later, they were 10.2% and 24.3%, respectively.

[3] = molecular target: hemoglobin solution in an oxy state (methemoglobin formation) (Homo sapiens, UniProt P68871+P69905); assay: Repeated addition of hydrogen peroxide to oxyhemoglobin solution, cyanomethemoglobin method; assay type: biochemical; conditions: 60 minutes; 310 μM hydrogen peroxide every 10 minutes, 37° C., air; 5 g/dL oxyhemoglobin; 0.5 wt % methemoglobin and/or 1 mM L-tyrosine
hemoglobin solution in an oxy state (methemoglobin formation), sequence (P69905 2-142 limits assumed): as the sequence (P69905 2-142 limits assumed) above
hemoglobin solution in an oxy state (methemoglobin formation), sequence (P68871 2-147 limits assumed): as the sequence (P68871 2-147 limits assumed) above
Procedure: Thereafter, 310 μM hydrogen peroxide (the same concentration as that of heme in methemoglobin) was added to the above solution, every 10 minutes, for 60 minutes in the atmospheric air at 37° C., while stirring. 300 μl of a sample was collected immediately before addition of each hydrogen peroxide, and 20 μl of catalase (5,000 units) was promptly added to each sample, so as to eliminate the hydrogen peroxide. Thereafter, the rate of methemoglobin was calculated by the cyanomethemoglobin method.

[4] = molecular target: T2, hemoglobin (Homo sapiens, UniProt P68871+P69905); assay: Isothermal titration microcalorimetry of L-tyrosine with hemoglobin; assay type: binding
T2 sequence (P69905 2-142 limits assumed): as the sequence (P69905 2-142 limits assumed) above
T2 sequence (P68871 2-147 limits assumed): as the sequence (P68871 2-147 limits assumed) above

[5] = molecular target: T2, hemoglobin; assay: Oxygen dissociation curve of hemoglobin mixed with L-tyrosine; assay type: biochemical
[6] = Maximum dissolvable concentration of L-tyrosine; assay type: physicochemical

Row | Molecule | Time required for 50% metHb formation ([1]; Table 1, concentration 0.1 mM) [h] | Time required for 50% metHb formation ([1]; Table 1, concentration 1 mM) [h] | Initial rate of metHb formation ([1]; concentration 0.1 mM) [% hr] | Initial rate of metHb formation ([1]; concentration 1 mM) [% hr] | Time required for 50% metHb formation ([1]; Table 1, concentration 3 mM) [h] | Initial rate of metHb formation ([1]; concentration 3 mM) [% hr] | also measured
1 | O=c1cc(-c2ccc(O)cc2)oc2cc(O)cc(O)c12 [Apigenin] | 34.8 | 35.6 | 1.6 | 1.4 |  |  | 
2 | N[C@H](Cc1ccc(O)cc1)C(=O)O [D-tyrosine] |  |  |  |  |  |  | effect to inhibit methemoglobin formation (FIG. 1) [1]: does not have such an effect of inhibiting methemoglobin formation
3 | O=C(O)CCc1ccc(O)cc1 [3-(p-hydroxyphenyl)pronionic acid, 3-(p-hydroxy-phenyl)pronionic acid] |  | 32.2 |  | 1.0 | 34.2 | 1.2 | Time required for 50% metHb formation ([1]; Table 1, concentration not given): 34.7 h; Initial rate of metHb formation ([1]; concentration not given): 0.9 % hr
4 | N[C@@H](Cc1ccc(O)cc1)C(=O)O [L-tyrosine] |  | 52.0 |  | 0.9 |  |  | Time required for 50% metHb formation ([1]; Table 1, concentration 0.25 mM): 42.0 h; Time required for 50% metHb formation ([1]; Table 1, concentration 0.5 mM): 48.0 h; Time required for 50% metHb formation ([1]; Table 2, concentration 0.25 mM): 42.0 h; Initial rate of metHb formation ([1]; concentration 0.25 mM): 1.1 % hr; Initial rate of metHb formation ([1]; concentration 0.5 mM): 1.0 % hr; effect to inhibit methemoglobin formation (FIG. 1) [1]: inhibits methemoglobin formation; rate of methemoglobin ([2]; 4° C., 1 month later, no L-tyrosine: 9.3%): 4.4%; rate of methemoglobin ([2]; 4° C., 3 months later, no L-tyrosine: 24.3%): 10.2%; rate of methemoglobin ([2]; when prepared, no L-tyrosine: 3.0%): 3.0%; rate of methemoglobin [3]: approximately 80%; heat of binding with hemoglobin [4]: almost no heat of binding was observed; change in the degree of oxygen affinity [5]: no change in the degree of oxygen affinity was observed; influence upon the allosteric effect [5]: no particular influence upon the allosteric effect was found; maximum concentration that can be dissolved [6]: approximately 20 mM
5 | O=c1c(O)c(-c2ccc(O)cc2)oc2cc(O)cc(O)c12 [Kaempferol] |  | 25.0 |  | 3.1 |  |  | 
6 | O=C(O)Cc1ccc(O)cc1 [p-hydroxyphenyl acetic acid] | 30.6 | 30.2 | 1.5 | 1.7 | 28.3 | 1.8 | 
7 | O=C(O[C@@H]1Cc2c(O)cc(O)cc2O[C@@H]1c1cc(O)c(O)c(O)c1)c1cc(O)c(O)c(O)c1 [Epigallocatechin gallate] |  | 12.4 |  | 3.4 | 13.0 | 3.2 | Time required for 50% metHb formation ([1]; Table 1, concentration 2 mM): 13.6 h; Initial rate of metHb formation ([1]; concentration 2 mM): 3.2 % hr
8 | L-Tyr-L-Tyr |  |  |  |  |  |  | Time required for 50% metHb formation ([1]; Table 2, concentration 0.1 mM): 32.0 h; Time required for 50% metHb formation ([1]; Table 2, concentration 0.25 mM): 32.0 h
9 | Oc1ccccc1 [Phenol] | 35.6 | 33.2 | 1.1 | 1.3 |  |  | 
10 | 3,4-dihydroxyphenol-L-alanine | 30.8 | 14.4 | 1.4 | 3.4 | 8.2 | 5.3 | 
11 | L-Tyr-L-Glu |  |  |  |  |  |  | Time required for 50% metHb formation ([1]; Table 2, concentration 0.1 mM): 33.0 h; Time required for 50% metHb formation ([1]; Table 2, concentration 0.25 mM): 33.0 h
12 | Catalase |  |  |  |  |  |  | Time required for 50% metHb formation ([1]; Table 2, concentration 50000 unit/mL): 45.0 h
